Experimental data reported in patent publication US8445461B2, “Pharmaceutical composition for meniere's disease” (Setsuko Takeda, priority 2007, dated 2013).

Key:
[1] = test system: animal model of experimental endolymphatic hydrops; test: Reference Example 6: erythritol added polyvinylpyrrolidone, conditions of feces; assay type: in vivo, guinea pigs; settings: erythritol 2.8 g/kg oral, alone or with PVP
Procedure: Guinea pigs (280 to 350 g of body weight, normal feces) received the surgical obliteration of the endolymphatic sac in the left ear to prepare an “animal model of experimental endolymphatic hydrops”. The surgery was performed as previously described in Non-patent Reference 8.
One month after, the animals orally received erythritol (2.8 g/kg) added polyvinylpyrrolidone (0.5 g/kg, about 7.1% by weight). […] The result is shown in FIG. 10 with comparing Group 4 in Example 2 (Animals were sacrificed 3 hours after the administration of erythritol 2.8 g/kg alone).

[2] = test system: guinea pigs excreting normal feces; test: Antidiarrheal effect: observation of feces after oral administration of saccharides or sugar alcohols with or without polysaccharides (Example 1); assay type: in vivo
Procedure: The criteria for analyzing the conditions of feces (hardness, shape and spaces of feces in the intestine) are as shown in Table 2:
The hardness and microscopic findings of feces from the group administered with distilled water were assessed as “Normal” scoring 3, the feces having normal shape and the shape could rather easily change by pushing with fingers were assessed as “Slightly soft” scoring 2, those of which the shape had already changed or it could quite easily change by pushed with fingers were assessed as “Soft” scoring 1, and those of which the shape is muddy or watery or of no shape were assessed “Muddy” scoring 0. To be precese, there are no watery feces because of the nature of diets and thus the muddy feces correspond to watery and muddy feces in human.
Since the muddy feces comprise large content of water, they induce the high abdominal pressure and the flatulence and distension. […] In the case of gas generation, it appears that noxious symptom such as the flatulence and distension are synergistically deteriorated. Therefore, we assessed not only based on the hardness of feces, but also the size, smoothness of the surface and amount of feces.
In these experiments, I observed is the diarrhea caused by saccharides or sugar alcohols and antidiarrhreal effect of saccharides. Guinea pigs orally received saccharides or sugar alcohols, for example tetrose such as erythritol, pentose such as xylitol or xylose, hexose such as isosorbitol or the like in combination with or without polysaccharides for observation of the feces up to 6 hours after the administration.
Guinea pigs (body weight 280 to 320 g, normal feces) were divided into four groups: for Group 1-a, xylitol alone (Reference Example 1), or xylitol and xanthan gum or pectin; for Group 1-b, xylose alone (Reference Example 2), xylose and xanthan gum or pectin; for Group 1-c, erythritol alone (Reference Example 3), erythritol and pectin, erythritol and xanthan gum, or erythritol, pectin and natural aluminum silicate gel or calcium carbonate; and for Group 1-d, isosorbitol alone (Reference Example 4), or isosorbitol and xanthan gum or pectin were orally administered, respectively. The compounds are dissolved in distilled water and 8 ml/kg of said solution were administered as a single dose.
The feces were observed during 6 hours after the administration. When the animals fell into the most serious condition, the hardness and shape of the feces from said animals were assessed as the effect by saccharides or sugar alcohols in the animals.

[3] = active agent 2.8 g/kg oral, alone or with additives of the label, most serious condition within 6 hours

Hardness of feces 0 (Muddy): number of animals [1]: 5
Hardness of feces 1 (Soft): number of animals [1]: 0
Hardness of feces 2 (Slightly soft): number of animals [1]: 0
Hardness of feces 3 (Normal): number of animals [1]: 0
Time after administration of the peak (most serious) diarrhea ([2]; active agent 2.8 g/kg oral, alone or with additive of the label): Three hours after
Hardness of feces: Hard (number of animals) [2, 3]: 0
Hardness of feces: Muddy (number of animals) [2, 3]: 5
Hardness of feces: Normal (number of animals) [2, 3]: 0
Hardness of feces: Slightly soft (number of animals) [2, 3]: 0
Hardness of feces: Soft (number of animals) [2, 3]: 0
Animals in which muddy feces continued up to 6 hours after ([2]; erythritol 2.8 g/kg alone, 5 animals): 3
SMILES: OC[C@@H](O)[C@@H](O)CO [Erythritol, erythritol]
